Experimental data from US11034650B2, “Compounds useful for treating a Mannheimia haemolytica or Histophilus somni infection” (Intervet Inc., priority 2016, dated 2021).
Values after ≈ are worked out from the molar mass of the structure shown.

Experiments:
Format in all cases: cell-based
[1] = system: Mannheimia haemolytica MH 6357 (M7/2, reference strain, cattle infection strain); assay: MIC, broth-microdilution (CLSI VET01-A4), strain MH 6357; conditions: Mannheimia haemolytica strain MH 6357, broth-microdilution; unit assumed
In short: (§1)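 Two-fold serial dilutions of each compound were prepared, bacteria were grown in them, and plates were then inspected visually. No turbidity at the lowest concentration defined the MIC.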

[2] = system: Mannheimia haemolytica MH 6374 (ATCC 33396, reference strain); assay: MIC, broth-microdilution (CLSI VET01-A4), strain MH 6374; conditions: Mannheimia haemolytica strain MH 6374, broth-microdilution; unit assumed
In short: as §1

[3] = system: Mannheimia haemolytica MH 10720 (154, BRD field isolate); assay: MIC, broth-microdilution (CLSI VET01-A4), strain MH 10720; conditions: Mannheimia haemolytica strain MH 10720, broth-microdilution; unit assumed
In short: as §1

[4] = system: Mannheimia haemolytica MH 12587 (1071, BRD field isolate, macrolide-resistance: erm+, E+); assay: MIC, broth-microdilution (CLSI VET01-A4), strain MH 12587; conditions: Mannheimia haemolytica strain MH 12587, broth-microdilution; unit assumed
In short: as §1

[5] = system: Mannheimia haemolytica MH 13065 (XB0446-6003.9, BRD field isolate); assay: MIC, broth-microdilution (CLSI VET01-A4), strain MH 13065; conditions: Mannheimia haemolytica strain MH 13065, broth-microdilution; unit assumed
In short: as §1

[6] = system: Mannheimia haemolytica MH 13093 (XB0472-6014.1, BRD field isolate); assay: MIC, broth-microdilution (CLSI VET01-A4), strain MH 13093; conditions: Mannheimia haemolytica strain MH 13093, broth-microdilution; unit assumed
In short: as §1

[7] = system: Pasteurella multocida PM 6267 (P 2225 (L386), reference strain, mouse infection strain); assay: MIC, broth-microdilution (CLSI VET01-A4), strain PM 6267; conditions: Pasteurella multocida strain PM 6267, broth-microdilution; unit assumed
In short: as §1

[8] = system: Pasteurella multocida PM 6391 (ATCC 43137, reference strain); assay: MIC, broth-microdilution (CLSI VET01-A4), strain PM 6391; conditions: Pasteurella multocida strain PM 6391, broth-microdilution; unit assumed
Method: For example, representative compounds were tested against ***, Mannheimia haemolytica and Pasteurella multocida, using the conventional broth-dilution assay.
The Minimum inhibitory concentrations (MIC) of compounds according to the invention for a number of veterinary bacterial pathogens were determined by the broth-microdilution method according to CLSI document VET01-A4.
Microdilution trays containing a doubling dilution series of the test compound were used for the tests. The MIC results were interpreted according to the CLSI documents VET01-S3. The lowest concentration of compound at which no visible growth (i.e. no turbidity) detected by the unaided eye was recorded as the MIC.

[9] = system: Pasteurella multocida PM 10775 (080130003051, BRD field isolate); assay: MIC, broth-microdilution (CLSI VET01-A4), strain PM 10775; conditions: Pasteurella multocida strain PM 10775, broth-microdilution; unit assumed
In short: as §1

[10] = system: Pasteurella multocida PM 12080 (IV102277-0093, BRD field isolate); assay: MIC, broth-microdilution (CLSI VET01-A4), strain PM 12080; conditions: Pasteurella multocida strain PM 12080, broth-microdilution; unit assumed
In short: as §1

Structure (SMILES) | MIC MH 6357 [1] | MIC MH 6374 [2] | MIC MH 10720 [3] | MIC MH 12587 [4] | MIC MH 13065 [5] | MIC MH 13093 [6] | MIC PM 6267 [7] | MIC PM 6391 [8] | MIC PM 10775 [9] | MIC PM 12080 [10]
C=CCNCc1ccc(C#Cc2ccc(C(=O)N[C@H](C(=O)NO)C(C)(C)SC)cc2)cc1 [C.236] | 0.8 µg/mL (≈ 1.77 µM) | 0.8 µg/mL (≈ 1.77 µM) | ≤ 0.1 µg/mL | 1.6 µg/mL (≈ 3.54 µM) | 0.8 µg/mL (≈ 1.77 µM) | 0.8 µg/mL (≈ 1.77 µM) | ≤ 0.1 µg/mL | 0.4 µg/mL (≈ 0.886 µM) | ≤ 0.1 µg/mL | 0.4 µg/mL (≈ 0.886 µM)
COCCNCc1ccc(C#Cc2ccc(C(=O)N[C@H](C(=O)NO)C(C)(C)SC)cc2)cc1 [C.237] | 1.6 µg/mL (≈ 3.41 µM) | 1.6 µg/mL (≈ 3.41 µM) | 0.2 µg/mL (≈ 0.426 µM) | 3.1 µg/mL (≈ 6.6 µM) | 1.6 µg/mL (≈ 3.41 µM) | 1.6 µg/mL (≈ 3.41 µM) | 0.2 µg/mL (≈ 0.426 µM) | 0.8 µg/mL (≈ 1.7 µM) | ≤ 0.1 µg/mL | 0.4 µg/mL (≈ 0.852 µM)
CC(C)([C@H](NC(=O)c1ccc(C#Cc2ccc(CNC3CC3)cc2)cc1)C(=O)NO)S(C)(=O)=O [C.255] | 0.8 µg/mL (≈ 1.65 µM) | 0.4 µg/mL (≈ 0.827 µM) | ≤ 0.1 µg/mL | 1.6 µg/mL (≈ 3.31 µM) | 0.4 µg/mL (≈ 0.827 µM) | 0.8 µg/mL (≈ 1.65 µM) | ≤ 0.1 µg/mL | ≤ 0.1 µg/mL | ≤ 0.1 µg/mL | ≤ 0.1 µg/mL
C=CCNCc1ccc(C#Cc2ccc(C(=O)N[C@H](C(=O)NO)C(C)(C)S(C)(=O)=O)cc2)cc1 [C.256] | 1.6 µg/mL (≈ 3.31 µM) | 0.8 µg/mL (≈ 1.65 µM) | ≤ 0.1 µg/mL | 1.6 µg/mL (≈ 3.31 µM) | 0.8 µg/mL (≈ 1.65 µM) | 0.8 µg/mL (≈ 1.65 µM) | ≤ 0.1 µg/mL | ≤ 0.1 µg/mL | ≤ 0.1 µg/mL | ≤ 0.1 µg/mL
CC(C)([C@H](NC(=O)c1ccc(C#Cc2ccc(CNCc3ccccc3)cc2)cc1)C(=O)NO)S(C)(=O)=O [C.259] | 0.8 µg/mL (≈ 1.5 µM) | 0.4 µg/mL (≈ 0.75 µM) | ≤ 0.1 µg/mL | 0.8 µg/mL (≈ 1.5 µM) | 0.4 µg/mL (≈ 0.75 µM) | 0.8 µg/mL (≈ 1.5 µM) | ≤ 0.1 µg/mL | ≤ 0.1 µg/mL | ≤ 0.1 µg/mL | ≤ 0.1 µg/mL
CC(C)([C@H](NC(=O)c1ccc(C#Cc2ccc(CNCc3ccncc3)cc2)cc1)C(=O)NO)S(C)(=O)=O [C.261] | 0.4 µg/mL (≈ 0.748 µM) | 0.4 µg/mL (≈ 0.748 µM) | ≤ 0.1 µg/mL | 0.8 µg/mL (≈ 1.5 µM) | 0.4 µg/mL (≈ 0.748 µM) | 0.4 µg/mL (≈ 0.748 µM) | ≤ 0.1 µg/mL | ≤ 0.1 µg/mL | ≤ 0.1 µg/mL | ≤ 0.1 µg/mL
CC(C)([C@H](NC(=O)c1ccc(C#Cc2ccc(CNCc3cccnc3)cc2)cc1)C(=O)NO)S(C)(=O)=O [C.267] | 0.8 µg/mL (≈ 1.5 µM) | 0.4 µg/mL (≈ 0.748 µM) | ≤ 0.1 µg/mL | 1.6 µg/mL (≈ 2.99 µM) | 0.8 µg/mL (≈ 1.5 µM) | 0.8 µg/mL (≈ 1.5 µM) | ≤ 0.1 µg/mL | ≤ 0.1 µg/mL | ≤ 0.1 µg/mL | ≤ 0.1 µg/mL
CC(C)([C@H](NC(=O)c1ccc(C#Cc2ccc(CNCc3ccccn3)cc2)cc1)C(=O)NO)S(C)(=O)=O [C.269] | 1.6 µg/mL (≈ 2.99 µM) | 0.4 µg/mL (≈ 0.748 µM) | ≤ 0.1 µg/mL | 1.6 µg/mL (≈ 2.99 µM) | 1.6 µg/mL (≈ 2.99 µM) | 0.8 µg/mL (≈ 1.5 µM) | ≤ 0.1 µg/mL | ≤ 0.1 µg/mL | ≤ 0.1 µg/mL | ≤ 0.1 µg/mL
CC(C)([C@H](NC(=O)c1ccc(C#Cc2ccc(CNCc3ccco3)cc2)cc1)C(=O)NO)S(C)(=O)=O [C.270] | 0.8 µg/mL (≈ 1.53 µM) | 0.2 µg/mL (≈ 0.382 µM) | ≤ 0.1 µg/mL | 0.8 µg/mL (≈ 1.53 µM) | 0.2 µg/mL (≈ 0.382 µM) | 0.4 µg/mL (≈ 0.764 µM) | ≤ 0.1 µg/mL | ≤ 0.1 µg/mL | ≤ 0.1 µg/mL | ≤ 0.1 µg/mL
CC(C)([C@H](NC(=O)c1ccc(C#Cc2ccc(CNCc3nccs3)cc2)cc1)C(=O)NO)S(C)(=O)=O [C.274] | 0.2 µg/mL (≈ 0.37 µM) | 0.2 µg/mL (≈ 0.37 µM) | ≤ 0.1 µg/mL | 0.4 µg/mL (≈ 0.74 µM) | 0.2 µg/mL (≈ 0.37 µM) | 0.2 µg/mL (≈ 0.37 µM) | ≤ 0.1 µg/mL | ≤ 0.1 µg/mL | ≤ 0.1 µg/mL | ≤ 0.1 µg/mL
